Reference: patent publication US20260287586A1, “METHODS OF TREATING TKI-RESISTANT AND SDH-DEFICIENT GIST” (priority 2023, published 2026)
Read-outs that look alike come from different tables or passages of the source.

Columns and labels:
[1] = for AUClast: fed, Day 27 steady state, mean (SD)
Description: Noncompartmental pharmacokinetic (PK) analysis was conducted using Phoenix WinNonlin software (Version 6.4).

[2] = system: SDH-deficient primary GIST cells; assay: Antiproliferation in SDH-deficient primary GIST cells (CellTiter 96 Aqueous assay, 72 hours); type: cell-based, human; details: all three primary cell lines derived from patients with SDH-deficient GIST
Description: Cells were seeded into 6-well plates and incubated overnight in complete culture medium.
All samples were collected at Sun Yat-sen University Cancer Center with informed consent obtained from each subject. The study, which involved human subjects, was approved by the Medical Ethics Committee of Sun Yat-sen University Cancer Center.
The tissues from GIST patient samples were sustained in Dulbecco's modified Eagle medium (DMEM)/F12 medium containing 1% antibiotic and washed with phosphate-buffered saline (PBS) and then cut into fragments by surgical ophthalmic scissors. The tissues were digested with 1 mg/mL collagenase IV at 37° C. for 30 minutes, followed by filtration of the suspension into single cells with a single-cell strainer centrifugation. […] The procedures were performed as per manufacturers' instructions.

[3] = system: oncogenic signaling proteins in SDHB KD PC12 #5F7 cells; assay: Western blot analysis of oncogenic signaling proteins; type: cell-based, rat
Description: Cells were extracted from SDH-deficient patient tumor tissues, seeded into 96-well plates, and incubated for 24 hours in GIST culture medium. […] Right panel, Colony formation assay in renal carcinoma cells 7860 (SDHB-wild-type) and OS-RC-2 (SDHB-deficient). Cells were seeded into 6-well plates and incubated overnight in complete culture medium.
Harvested cells treated with dimethyl sulfoxide (DMSO) or indicated concentrations of compounds were lysed in radio-immunoprecipitation (RIPA) buffer (#P0013, Beyotime, China) containing a protease inhibitor cocktail (#20104ES08, Yeasen Biotechnology Co., Ltd., Shanghai) and a phosphatase inhibitor (#20109-A, #20109-B, Yeasen). Equal amounts of protein were separated by 4-20% sodium dodecyl sulfate polyacrylamide gel electrophoresis (SDS-PAGE) and transferred to nitrocellulose membranes. After being blocked with 3% bovine serum, membranes were incubated with primary antibodies, followed by horseradish peroxidase (HRP)-conjugated secondary antibody (#7074, anti-rabbit IgG, CST; #7076, anti-mouse IgG, CST). Finally, bound secondary antibodies were visualized using an ECL Western Blotting Detection Kit (Yeasen). […]

[4] = system: GIST430 cell-derived xenograft; assay: Imatinib-resistant GIST430 cell-derived xenograft model; type: in vivo; details: olverembatinib 15 mg/kg every other day for 3 weeks; lisaftoclax 50 mg/kg daily for 3 weeks; alone or combined
From the text: Therefore, selective inhibition of BCL-2, aided by TKI-mediated MCL-1 and BCL-XL inhibition, markedly augmented cleavage of caspase-3 and poly(ADP-ribose) polymerase 1 (PARP-1), thus triggering apoptosis and subsequently enhancing antitumor effects.

Cc1ccc(C(=O)Nc2ccc(CN3CCN(C)CC3)c(C(F)(F)F)c2)cc1C#Cc1cnc2[nH]ncc2c1 [Olverembatinib, olverembatinib]
AUClast ([1]; 20 mg QOD oral, 2 subjects): 228 ± 6.4 h*ng/m
AUClast ([1]; 30 mg QOD oral, 4 subjects): 307 ± 121 h*ng/m
AUClast ([1]; 40 mg QOD oral, 15 subjects): 473 ± 177 h*ng/m
AUClast ([1]; 50 mg QOD oral, 3 subjects): 518 ± 174 h*ng/m
accumulation after multiple-dose administration ([1]; 20 to 50 mg QOD): no significant accumulation
dose proportionality of Cmax and AUClast ([1]; dose range of 20 to 50 mg): approximately dose-proportional increase
potency rank among TKIs [2]: most potent inhibitor
effect on HIF-1α, HIF-2α, VEGFA, FGFR1, IGF-1R, p-FGFR1, p-IGF-1R, STAT3, p-STAT3, Src and downstream AKT, ERK1/2 ([3]; 24 h treatment, FIG. 2C): dose-dependently inhibited
cleavage of caspase-3 and poly(ADP-ribose) polymerase 1 (apoptosis induction) ([3]; tumor cell lines treated with olverembatinib): Increased cleavage of caspase-3 and poly(ADP-ribose) polymerase 1
Tumor growth inhibition (TGI) rate [4]: 57.6%
